Source: US20240117005A1, “NOVEL BICYCLIC PEPTIDES” (THE COUNCIL OF THE QUEENSLAND INSTITUTE OF MEDICAL RESEARCH, priority 2021, published 2024)
Starred links: 1 amine or outer side, 2 acyl side, 3 side chain; linkers in the order of their positions; H or OH if unused. Positions of bridges follow the written chain, without caps; N, C: chain ends. No end group written: not given here. *: point of attachment. TBMB = c1c(C[*:1])cc(C[*:3])cc1C[*:2]; Myristyl = CCCCCCCCCCCCCC*

Experiments:
[1] = tested on: MDA-MB-231 cells; assay: WST-1 cell proliferation assay, MDA-MB-231; type: cell-based, human; conditions: MDA-MB-231, WST-1, 72 hours
Protocol: (§1) MDA-MB-231 cells were seeded at 4×10^3 cells/well into a 96-well flat bottom tissue culture plate in a final volume of 100 ul and left to adhere for 24 hours at 37° C. and 5% CO2. Cells were then treated with inhibitors for 72 hours at a final concentration of 200, 100, 50, 25, 12.5 or 6.25 μM. Following inhibition, media was removed and replaced with 100 μL/well of WST-1 cell proliferation reagent (Sigma-Aldrich, Cat# 11644807001) at 1:10 final dilution. Absorbance was recorded at 450 nm at 1, 2, 3, and 4 hour incubation periods using a microplate spectrophotometer (with 30 sec mix time). Data represent a single independent experiment performed in triplicate, results are graphed as mean +/− standard error (SE).
(§2) (A) CT26, 4T1 or MDA-MB-231 Cells were treated with inhibitors for 72 hours. Following inhibition, media was removed and replaced with WST-1 cell proliferation reagent. Absorbance was recorded at 450 nm after 1 hour. Data represent a single independent experiment performed in triplicate. Results are graphed as mean +/− standard error (SE). B) MDA-MB-231 or CT26 cancer cells were treated with vehicle control, DL-2-Batch 1 (original stock), DL-2-Batch 2 (current stock), DL-2-TBAB or linear PDL1. Cells were permeabilised and were probed with the DUOLINK ligation assay. Cover slips were mounted on glass microscope slides with ProLong nucblue glass Antifade reagent (Life Technologies). PDL1Ac and IMPα1 DUOLINK Digital images were analysed using ImageJ software (ImageJ, NIH, Bethesda, MD, USA) and graphs represent the mean DOT Fluorescent Intensity in the nucleus or the cytoplasm compartments with significant differences calculated as per one-way ANOVA comparison. (C) MDA-MB-231 or CT26 cancer cells were treated with vehicle control, DL-2-Batch 1 (Original stock), DL-2-Batch 2 (current stock), DL-2-TBAB or linear PDL1. Cells were permeabilised and were probed with the DUOLINK ligation assay. Cover slips were mounted on glass microscope slides with ProLong nucblue glass Antifade reagent (Life Technologies). PDL1-unmodified and IMPα1 DUOLINK digital images were analysed using ImageJ software (ImageJ, NIH, Bethesda, MD, USA) and graphs represent the mean DOT fluorescent intensity in the nucleus or the cytoplasm compartments with significant differences calculated as per one-way ANOVA comparison.
(§3) 4T1, CT26 or MDA-MB-231 cancer cell lines were treated with DL-2 or DL-2-D bicyclic inhibitors for 72 hours. Following inhibition, media was removed and replaced with WST-1 cell proliferation reagent. Absorbance was recorded at 450 nm after 1 hour. Data represent a single independent experiment performed in triplicate; results are graphed as mean +/− standard error (SE).
Cells weretreated with inhibitors for 48 hours. Following inhibition, media was removed and replaced with WST-1 cell proliferation reagent. Absorbance was recorded at 450 nm after 1 hour.

[2] = Rat plasma stability assay; type: in vitro ADME; conditions: 37° C., up to 24 hours
Protocol: The stability assay was performed as per CRO's protocol (Creative Peptides). In brief, peptide stability assays were carried out using a rat plasma model with the following steps: • 3.6 mL of human plasma and rat plasma were thawed at room temperature and centrifuged at 3000 rpm for 15 min. Remove the precipitate. • Prepare 20 mL termination solution ([…]) and precool at 4° C. • Prepare the following solution:
• Incubate the tube at 37° C. Take out 200 μL plasma sample at desired time points up to 24 hours respectively (e.g., at 0, 15, 30, 60, 120 mins, etc). Add 400 μL pre-cooled stop solution, centrifuge at 3000 rpm, 4° C. for 15 min, and carefully aspirate the supernatant. • The supernatant samples were filtered with a 0.22 μm filter membrane, and then analysed by LC-MS in order to determine the percentage of the test compound remaining.
The stability assay was performed using the same protocol as described above in Example 7.

[3] = tested on: CD8+ TIM3+ T cells; assay: FACS of CD8+ TIM3+ T cells from 4T1 tumour mouse model; type: in vivo; conditions: 4T1 TNBC tumour mouse model
Source text: FIG. 32 provides graphical representations showing a comparison between DL-2 and DL-2-D. (A) As per FIGS. 24, and 25, above. (B) Fixed cells were washed with PBS and resuspended in PBS containing 1% BSA prior to antibody staining. Primary antibodies targeting CD8, TIM3 and PD1 antibodies were used. Appropriate antibody controls were used for all flow cytometry stain and acquisition. All samples were acquired on an LSR Fortessa cytometer (BD Biosciences, Franklin Lakes, NJ), and data were analyzed using FlowJo v10 software

[4] = tested on: 4T1 TNBC metastatic cancer cells; assay: 4T1 model of metastatic breast cancer in mice; type: in vivo, mouse
Protocol: 4T1 Gold standard immunotherapy resistant mouse model mice obtained from the ARC, Perth and mice were inoculated with 4T1 TNBC metastatic cancer cells. DL-2 is supplied lyophilised in glass vials and was reconstituted using sodium chloride injection BP (0.9% saline) to make a stock solution of 10 mg/mL using a needle/syringe, DL-2 was mixed by inversion. Animals were then injected by intraperitoneal injection at 10, 20 or 30 mg/kg daily and rested over the weekend. Mice were monitored over time for body weight and tumour volume.
4T1 Gold standard immunotherapy resistant mouse model mice obtained from the ARC, Perth and mice were inoculated with 4T1 TNBC metastatic cancer cells. DL-2 or DL-2-D is supplied lyophilised in glass vials was reconstituted using sodium chloride injection BP (0.9% saline) to make a stock solution of 10 mg/mL using a needle/syringe, DL-2 was mixed by inversion. Animals were then injected by intraperitoneal injection and mice were monitored over time for body weight and tumour volume for DL-2 at 20 mg/kg every second day with resting over the weekend in conjunction with αPD1 or isotype control (10 mg/kg).
DL-2-D was mixed by inversion. Animals were then injected by intraperitoneal injection and mice were monitored over time for body weight and tumour volume for DL-2-D at a concentration of 20 mg/kg every two days (identical regime to αPD1) in conjunction with αPD1 or isotype control (10 mg/kg).

[5] = tested on: CT26 cells; assay: WST-1 cell proliferation assay, CT26; type: cell-based, mouse; conditions: CT26, WST-1, 72 hours
Protocol: as §2, §3

[6] = tested on: 4T1 cells; assay: WST-1 cell proliferation assay, 4T1; type: cell-based; conditions: 4T1, WST-1, 72 hours
Protocol: as §2, §3

[7] = tested on: CSC; assay: CSC inhibition (Table 10 summary); type: cell-based; conditions: linear peptide derivatives; change stated relative to prototype PDL1-L1
[8] = tested on: metastatic initiating cells (MICs); assay: Flow cytometry for alanine walk (MIC inhibition); type: cell-based; conditions: alanine walk peptide inhibitors, FACS MIC signature
Protocol: FACS (Fluorescence-activated cell sorting) was performed on single-cell suspensions treated with a suite of alanine walk peptide inhibitors. Cells were stained an array of antibodies to target the metastatic initiating cell (MIC) signature including CD44, CD24, SNAIL, ABCB5, CSV and Hoechst dye to monitor cell viability. The FACS gating strategy used is adopted and modified from our signature for metastatic initiating cells (MICs), which sorted cells based on the MIC, therapeutic resistant phenotype, shown to be associated with metastatic and aggressive cancer cells. A flow cytometry gating strategy was always included in the analysis to exclude dead cells ([…]). Flow cytometry acquisition was performed on single cell suspensions using BLSR II. Analysis was performed using FlowJo software.

[9] = tested on: cancer cell proliferation; assay: Cancer cell proliferation (Table 12 summary); type: cell-based
Protocol: as §1, §3

[10] = tested on: MDA-MB-231-Br cells; assay: WST-1 cell proliferation assay, MDA-MB-231-Br; type: cell-based, human; conditions: WST-1
[11] = tested on: PDL1-PTM1, CSV and ALDH1A1 in 4T1 cells; assay: Imaging of PDL1-PTM1, CSV and ALDH1A1 after cyclic PDL1 peptide; type: cell-based; conditions: 4T1 breast cancer cell line (Table 11 comment)
Protocol: Breast cancer cell line, 4T1, was treated with vehicle control or cyclic PDL1 peptide (cyclic PDL1) at a concentration of 50 μM. Cells were permeabilised and were probed with primary antibodies against PDL1-PTM1, CSV and ALDH1A1. Cover slips were mounted on glass microscope slides with ProLong nucblue glass Antifade reagent (Life Technologies). PDL1-PTM1, CSV and ALDH1A1 digital images were analysed using ImageJ software (ImageJ, NIH, Bethesda, MD, USA). Graphs represent the mean fluorescent intensity in the nucleus or the cytoplasm compartments with significant differences calculated as per Mann-Whitney analysis or the ratio of nuclear to cytoplasmic staining for PDL1-PTM1 which was calculated using the formula F(n−b)/(c−b) wherein n=nuclear staining, b=background, c=cytoplasmic. A ratio of 1 or high indicates nuclear bias, under 1 indicates cytoplasmic bias.

[12] = DL-2-D (20 mg/kg) and αPD1 (10 mg/kg) combination therapy, day 20

In the case of acltfifcrirckGrcmmdvkk [DL-2-D], the inhibition of proliferation [1] is reported as “significantly inhibit the proliferation”, the “stability in rat plasma (percentage of test compound remaining)” value [2] is reported as “significantly more stable” and the “abrogating the TIM3+ immunotherapy-resistant signature in CD8+ T cells” value [3] is reported as “more potent than DL-2”. The lung metastasis [4, 12] was “reduces”, the primary tumour burden [4, 12] was “reduces” and the “lung, liver or spleen weights” value ([4]; DL-2-D alone) was “does not alter”. For the same substance, the body weight ([4]; DL-2-D and anti-PD1 combination therapy) was “No change”, the tumour volume ([4]; DL-2-D as a monotherapy agent) was “significantly inhibits” and the “lung, liver or spleen weights” value ([4]; DL-2-D in combination with anti-PD1) was “does not alter”. For the same substance, the body weight ([4]; DL-2-D monotherapy) was “No change”, the inhibition of proliferation [5] was “significantly inhibit the proliferation” and the inhibition of proliferation [6] was “significantly inhibit the proliferation”.

In the case of “ACLTFIFCRLRKGRCMMDVKK [DL2-Linear, Myristyl- DL2 linear peptide]”, the “Potency (CSC inhibition)” value [7] is reported as “No change”.

With TAIFRLRKGRMMDVKK the “% Inhibition (number of metastatic initiating cells)” value (“% Inhibition” for short) [8] was 74.35%.

For “LTFICFRLRKGRMCMDVCGKK (Myristyl-LTFICFRLRKGRMCMDVCGKK; linker 5-14-18 via TBMB) [DL-1, bicyclic peptide, Myristyl- N-terminus, TBMB backbone]”, the inhibition of proliferation [1] was “able to inhibit proliferation”, the “fold less potent than DL-2 at inhibiting cancer cell proliferation” value [9] was “DL-1 was 3-fold less” and the inhibition of proliferation [10] was “able to inhibit proliferation”.

In the case of “kkvdmmcrGkrlrcfiftlca [DL2-D Ret Linear]”, the “Potency (CSC inhibition)” value [7] is reported as “No change”.

For TFIFRLRKGRMMDVAK, the “% Inhibition” value [8] was 48.7%.

In the case of TFIFRLRAGRMMDVKK, the “% Inhibition” value [8] is reported as 0%.

In the case of “ACLTFIFRLRCKGRMCMDVGKK (Myristyl-ACLTFIFRLRCKGRMCMDVGKK; linker 2-11-16 via TBMB) [DL-3, bicyclic peptide, Myristyl- N-terminus, TBMB backbone]”, the “inhibition of cancer cell proliferation” value ([9]; Table 12 comment) is reported as “DL-3 displayed no”.

With AFIFRLRKGRMMDVKK the “% Inhibition” value [8] was 80.13%.

In the case of “LTFIFRLRKGRMMDVKKAGGA (Myristyl-LTFIFRLRKGRMMDVKKAGGA; not fully specified) [PDL1-L1 C2, Myristyl- cyclic peptide derivative, 4 linker amino acids]”, the “inhibition of mesenchymal cancer markers and nuclear PDL1-PTM1” value [11] is reported as “Failed to inhibit”.

For TFIFALRKGRMMDVKK, the “% Inhibition” value [8] was 71.67%.

For TFIFRARKGRMMDVKK, the “% Inhibition” value [8] was 35.6%.

For acltfifcrlrkGrcmmdvkk [DL2-D-Linear], the “Potency (CSC inhibition)” value [7] was “No change”.

With TFIARLRKGRMMDVKK the “% Inhibition” value [8] was 4.4%.

With TFIFRLRKGRMMDVKA the “% Inhibition” value [8] was 58.03%.

With TFIFRLRKGRMMAVKK the “% Inhibition” value [8] was 100%.

In the case of TFIFRLRKGRMMDAKK, the “% Inhibition” value [8] is reported as 81.9%.

With TFIFRLRKGAMMDVKK the “% Inhibition” value [8] was 62.69%.

With TFIFRLRKGRAMDVKK the “% Inhibition” value [8] was 74.35%.

For TFIFRLRKGRMADVKK, the “% Inhibition” value [8] was 100%.

With TFAFRLRKGRMMDVKK the “% Inhibition” value [8] was 30.2%.

For TFIFRLRKARMMDVKK, the “% Inhibition” value [8] was 41.38%.

For TFIFRLAKGRMMDVKK, the “% Inhibition” value [8] was 43.98%.
